Measurements published in patent publication US20260256792A1, “TREATMENT OF CHRONIC SPONTANEOUS URTICARIA BY ADMINISTERING (R)-2-[3-[4-AMINO-3-(2-FLUORO-4-PHENOXY-PHENYL)PYRAZOLO[3,4-D]PYRIMIDIN-1-YL]PIPERIDINE-1-CARBONYL]-4-METHYL-4-[4-(OXETAN-3-YL)PIPERAZIN-1-YL]PENT-2-ENENITRILE” (priority 2023, published 2026).

Test system: moderate-to-severe chronic spontaneous urticaria (CSU)
Experiment: Phase 2 CSU study: urticaria activity score over 7 days (UAS7)
Assay type: in vivo, human
Settings: Omalizumab-naïve
From the text: The study comprises a 12 week, randomized, double-blind, placebo-controlled, multi-center, dose-ranging efficacy and safety phase, followed by a 40 week open label extension (OLE) phase (see FIG. 1). The study consists of three phases and an optional OLE phase. […] Clinically, CSU is characterized by the spontaneous and recurrent appearance of pruritic hives. The proposed primary endpoints were the UAS7 at Week 12 in EU and EU reference countries and the ISS7 in the US. Regardless of where a participant was from, all assessments were the same. The UAS7 score is a composite score containing both the HSS7 and the ISS7. This allowed a global assessment of the two key components of urticaria: hives and itch. […] The UAS is a validated PRO measure. […] The daily UAS scores range from 0 to 6 point/day. […] Patients were to complete the UAS using the e-diary. […] The following secondary endpoints were to be analyzed using the same approach as for the primary endpoint: • Change from baseline in UAS7 at Week 4 • Change from baseline in UAS7 at Week 12 (for US and US reference countries) • Change from baseline in ISS7 at Week 12 (except US and US reference countries) • Change from baseline in HSS7 at Week 12 The following responder secondary endpoints were to be analyzed using the Cochran-Mantel-Haenszel test adjusted by region: • Proportion of participants with UAS7<6 at Week 12 • Proportion of participants with UAS7=0 at Week 12 Participants who received selected prohibited medications and/or rescue medications were to be considered as non-responders for time points after the medication usage. For other participants, all available data including those collected during the off-treatment period were to be used to determine the responder/non-responder status. Missing data were to be considered as non-responders.

SMILES: CC(C)(C=C(C#N)C(=O)N1CCC[C@@H](n2nc(-c3ccc(Oc4ccccc4)cc3F)c3c(N)ncnc32)C1)N1CCN(C2COC2)CC1 [rilzabrutinib, (R)-2-[3-[4-amino-3-(2-fluoro-4-phenoxy-phenyl)pyrazolo[3,4-d]pyrimidin-1-yl]piperidine-1-carbonyl]-4-methyl-4-[4-(oxetan-3-yl)piperazin-1-yl]pent-2-enenitrile]
- Imputed non-responder n (%), UAS7 ≤6 (400 mg QPM, Week 8): 7 (18.9) n (%)
- Non-responder n (%), UAS7 = 0 (400 mg QPM, Week 8): 36 (97.3) n (%)
- Non-responder n (%), UAS7 ≤6 (400 mg QPM, Week 8): 34 (91.9) n (%)
- OR for rilzabrutinib vs. placebo, UAS7 = 0 (400 mg QPM, Week 8): 0.477
- RRD (%) for rilzabrutinib vs. placebo, UAS7 = 0 (400 mg QPM, Week 8): −2.7 %
- RRD (%) for rilzabrutinib vs. placebo, UAS7 ≤6 (400 mg QPM, Week 8): −8.4%
- Responder n (%), UAS7 = 0 (400 mg QPM, Week 8): 1 (2.7) n (%)
- Responder n (%), UAS7 ≤6 (400 mg QPM, Week 8): 3 (8.1) n (%)
- Imputed non-responder n (%), UAS7 = 0 (400 mg QPM, Week 9): 6 (16.2) n (%)
- Imputed non-responder n (%), UAS7 ≤6 (400 mg QPM, Week 9): 6 (16.2) n (%)
- Non-responder n (%), UAS7 = 0 (400 mg QPM, Week 9): 36 (97.3) n (%)
- Non-responder n (%), UAS7 ≤6 (400 mg QPM, Week 9): 34 (91.9) n (%)
- OR for rilzabrutinib vs. placebo, UAS7 = 0 (400 mg QPM, Week 9): 0.305
- OR for rilzabrutinib vs. placebo, UAS7 ≤6 (400 mg QPM, Week 9): 0.715
- RRD (%) for rilzabrutinib vs. placebo, UAS7 = 0 (400 mg QPM, Week 9): −5.6 %
- RRD (%) for rilzabrutinib vs. placebo, UAS7 ≤6 (400 mg QPM, Week 9): −3.0%
- Responder n (%), UAS7 = 0 (400 mg QPM, Week 9): 1 (2.7) n (%)
- Responder n (%), UAS7 ≤6 (400 mg QPM, Week 9): 3 (8.1) n (%)
- Imputed non-responder n (%), UAS7 = 0 (400 mg QPM, Week 10): 6 (16.2) n (%)
- Imputed non-responder n (%), UAS7 ≤6 (400 mg QPM, Week 10): 6 (16.2) n (%)
- Non-responder n (%), UAS7 = 0 (400 mg QPM, Week 10): 36 (97.3) n (%)
- Non-responder n (%), UAS7 ≤6 (400 mg QPM, Week 10): 35 (94.6) n (%)
- OR for rilzabrutinib vs. placebo, UAS7 = 0 (400 mg QPM, Week 10): 0.219
- OR for rilzabrutinib vs. placebo, UAS7 ≤6 (400 mg QPM, Week 10): 0.357
- RRD (%) for rilzabrutinib vs. placebo, UAS7 = 0 (400 mg QPM, Week 10): −8.7 %
- RRD (%) for rilzabrutinib vs. placebo, UAS7 ≤6 (400 mg QPM, Week 10): −8.6%
- Responder n (%), UAS7 = 0 (400 mg QPM, Week 10): 1 (2.7) n (%)
- Responder n (%), UAS7 ≤6 (400 mg QPM, Week 10): 2 (5.4) n (%)
- Imputed non-responder n (%), UAS7 = 0 (400 mg QPM, Week 11): 7 (18.9) n (%)
- Imputed non-responder n (%), UAS7 ≤6 (400 mg QPM, Week 11): 7 (18.9) n (%)
- Non-responder n (%), UAS7 = 0 (400 mg QPM, Week 11): 35 (94.6) n (%)
- Non-responder n (%), UAS7 ≤6 (400 mg QPM, Week 11): 34 (91.9) n (%)
- OR for rilzabrutinib vs. placebo, UAS7 = 0 (400 mg QPM, Week 11): 0.986
- OR for rilzabrutinib vs. placebo, UAS7 ≤6 (400 mg QPM, Week 11): 0.456
- RRD (%) for rilzabrutinib vs. placebo, UAS7 ≤6 (400 mg QPM, Week 11): −8.5%
- Responder n (%), UAS7 = 0 (400 mg QPM, Week 11): 2 (5.4) n (%)
- Responder n (%), UAS7 ≤6 (400 mg QPM, Week 11): 3 (8.1) n (%)
- Imputed non-responder n (%), UAS7 = 0 (400 mg QPM, Week 12): 10 (27.0) n (%)
- Imputed non-responder n (%), UAS7 ≤6 (400 mg QPM, Week 12): 10 (27.0) n (%)
- Non-responder n (%), UAS7 = 0 (400 mg QPM, Week 12): 36 (97.3) n (%)
- Non-responder n (%), UAS7 ≤6 (400 mg QPM, Week 12): 35 (94.6) n (%)
- OR for rilzabrutinib vs. placebo, UAS7 = 0 (400 mg QPM, Week 12): 0.219
- OR for rilzabrutinib vs. placebo, UAS7 ≤6 (400 mg QPM, Week 12): 0.438
- RRD (%) for rilzabrutinib vs. placebo, UAS7 = 0 (400 mg QPM, Week 12): −8.7 %
- RRD (%) for rilzabrutinib vs. placebo, UAS7 ≤6 (400 mg QPM, Week 12): −6.1%
- Responder n (%), UAS7 = 0 (400 mg QPM, Week 12): 1 (2.7) n (%)
- Responder n (%), UAS7 ≤6 (400 mg QPM, Week 12): 2 (5.4) n (%)
- Imputed non-responder n (%), UAS7 = 0 (400 mg TID, Week 1): 0 n (%)
- Imputed non-responder n (%), UAS7 ≤6 (400 mg TID, Week 1): 0 n (%)
- Non-responder n (%), UAS7 = 0 (400 mg TID, Week 1): 34 (97.1) n (%)
- Non-responder n (%), UAS7 ≤6 (400 mg TID, Week 1): 27 (77.1) n (%)
- OR for rilzabrutinib vs. placebo, UAS7 ≤6 (400 mg TID, Week 1): 4.809
- RRD (%) for rilzabrutinib vs. placebo, UAS7 = 0 (400 mg TID, Week 1): 0.2 %
- RRD (%) for rilzabrutinib vs. placebo, UAS7 ≤6 (400 mg TID, Week 1): 15.9 %
- Responder n (%), UAS7 = 0 (400 mg TID, Week 1): 1 (2.9) n (%)
- Responder n (%), UAS7 ≤6 (400 mg TID, Week 1): 8 (22.9) n (%)
- Imputed non-responder n (%), UAS7 = 0 (400 mg TID, Week 2): 0 n (%)
- Imputed non-responder n (%), UAS7 ≤6 (400 mg TID, Week 2): 0 n (%)
- Non-responder n (%), UAS7 = 0 (400 mg TID, Week 2): 31 (88.6) n (%)
- Non-responder n (%), UAS7 ≤6 (400 mg TID, Week 2): 27 (77.1) n (%)
- OR for rilzabrutinib vs. placebo, UAS7 = 0 (400 mg TID, Week 2): 4.736
- OR for rilzabrutinib vs. placebo, UAS7 ≤6 (400 mg TID, Week 2): 4.455
- RRD (%) for rilzabrutinib vs. placebo, UAS7 = 0 (400 mg TID, Week 2): 8.3 %
- RRD (%) for rilzabrutinib vs. placebo, UAS7 ≤6 (400 mg TID, Week 2): 15.3 %
- Responder n (%), UAS7 = 0 (400 mg TID, Week 2): 4 (11.4) n (%)
- Responder n (%), UAS7 ≤6 (400 mg TID, Week 2): 8 (22.9) n (%)
